# Results taken from ChEMBL document CHEMBL5465560, “Selectivity Literature for EUbOPEN Chemogenomic Library” (2024).
# Columns and labels:
# [1] = target: SRSF protein kinase 2 (Homo sapiens) (UniProt P78362); test: Selectivity interaction (KinomeScan (DiscoverX)) EUB0000229b SRPK2; conditions: at 10 µM
# [2] = target: T1, Mitogen-activated protein kinase kinase kinase kinase 2 (Homo sapiens) (UniProt Q12851); test: Selectivity interaction (Kinase panel (Invitrogen)) EUB0000639a MAP4K2; conditions: at 200 nM
# T1 sequence (whole entry): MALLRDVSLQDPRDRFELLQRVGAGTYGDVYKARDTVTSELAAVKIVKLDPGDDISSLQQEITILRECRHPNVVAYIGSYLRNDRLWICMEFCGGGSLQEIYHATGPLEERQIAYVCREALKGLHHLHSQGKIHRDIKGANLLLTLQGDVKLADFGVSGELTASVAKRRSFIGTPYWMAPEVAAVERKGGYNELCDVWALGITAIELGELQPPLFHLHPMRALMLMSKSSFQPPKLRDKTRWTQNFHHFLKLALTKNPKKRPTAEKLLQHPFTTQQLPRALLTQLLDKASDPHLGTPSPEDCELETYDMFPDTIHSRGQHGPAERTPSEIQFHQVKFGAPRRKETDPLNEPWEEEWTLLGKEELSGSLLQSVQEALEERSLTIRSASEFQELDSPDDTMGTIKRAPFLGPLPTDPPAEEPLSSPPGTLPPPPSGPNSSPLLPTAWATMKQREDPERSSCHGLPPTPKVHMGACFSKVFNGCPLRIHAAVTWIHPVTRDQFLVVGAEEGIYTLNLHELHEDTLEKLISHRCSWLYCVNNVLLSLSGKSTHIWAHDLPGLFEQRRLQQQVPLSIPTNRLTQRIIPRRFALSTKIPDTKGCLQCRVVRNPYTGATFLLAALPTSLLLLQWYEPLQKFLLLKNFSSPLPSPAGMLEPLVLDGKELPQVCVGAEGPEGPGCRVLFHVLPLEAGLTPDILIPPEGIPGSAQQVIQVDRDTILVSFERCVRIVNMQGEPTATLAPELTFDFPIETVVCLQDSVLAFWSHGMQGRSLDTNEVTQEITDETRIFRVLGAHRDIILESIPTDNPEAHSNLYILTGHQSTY
# [3] = target: Tyrosine-protein kinase Fgr (Homo sapiens) (UniProt P09769); test: Selectivity interaction (Ambit KINOMEscan and KiNATiv profiling in Jurkat cells) EUB0000090b FGR; format: cell-based; conditions: at 1 µM
# [4] = target: Calcium/calmodulin-dependent protein kinase type II subunit alpha (Homo sapiens, UniProt Q9UQM7); test: Selectivity interaction (KinomeScan (DiscoverX)) EUB0000618a CAMK2A; conditions: at 10 µM
# [5] = target: T2, Ephrin type-B receptor 4 (Homo sapiens) (UniProt P54760); test: Selectivity interaction (Upstate Kinase Profiler service (Millipore)) EUB0000056c EPHB4; conditions: at 1 µM
# T2 sequence (whole entry): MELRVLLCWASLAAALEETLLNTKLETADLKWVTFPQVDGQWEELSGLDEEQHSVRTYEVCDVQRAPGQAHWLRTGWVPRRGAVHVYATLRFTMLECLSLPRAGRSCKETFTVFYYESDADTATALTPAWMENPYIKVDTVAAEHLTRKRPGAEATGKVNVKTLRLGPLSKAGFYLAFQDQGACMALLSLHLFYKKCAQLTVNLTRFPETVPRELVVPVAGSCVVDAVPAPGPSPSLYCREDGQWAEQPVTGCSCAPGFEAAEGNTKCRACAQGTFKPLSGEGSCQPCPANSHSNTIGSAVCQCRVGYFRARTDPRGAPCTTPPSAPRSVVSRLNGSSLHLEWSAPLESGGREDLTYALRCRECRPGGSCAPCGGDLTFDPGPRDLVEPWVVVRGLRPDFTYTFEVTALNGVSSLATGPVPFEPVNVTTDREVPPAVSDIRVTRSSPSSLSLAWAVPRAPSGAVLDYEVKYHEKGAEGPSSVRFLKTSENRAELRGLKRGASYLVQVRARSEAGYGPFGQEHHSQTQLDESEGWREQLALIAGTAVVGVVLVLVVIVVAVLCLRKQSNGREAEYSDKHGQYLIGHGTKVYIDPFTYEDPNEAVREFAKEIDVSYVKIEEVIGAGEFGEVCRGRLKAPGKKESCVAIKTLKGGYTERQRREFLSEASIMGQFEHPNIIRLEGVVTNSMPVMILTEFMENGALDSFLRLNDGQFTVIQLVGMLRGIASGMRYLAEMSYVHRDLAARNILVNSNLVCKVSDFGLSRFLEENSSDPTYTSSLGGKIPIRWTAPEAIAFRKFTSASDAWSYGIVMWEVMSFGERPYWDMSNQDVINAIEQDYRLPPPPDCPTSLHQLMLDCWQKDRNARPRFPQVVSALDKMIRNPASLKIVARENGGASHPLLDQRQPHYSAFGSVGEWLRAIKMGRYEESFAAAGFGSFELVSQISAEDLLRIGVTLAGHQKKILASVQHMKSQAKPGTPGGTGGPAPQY
# Chain of SRSF protein kinase 2 (Homo sapiens) (P78362 whole entry, looked up): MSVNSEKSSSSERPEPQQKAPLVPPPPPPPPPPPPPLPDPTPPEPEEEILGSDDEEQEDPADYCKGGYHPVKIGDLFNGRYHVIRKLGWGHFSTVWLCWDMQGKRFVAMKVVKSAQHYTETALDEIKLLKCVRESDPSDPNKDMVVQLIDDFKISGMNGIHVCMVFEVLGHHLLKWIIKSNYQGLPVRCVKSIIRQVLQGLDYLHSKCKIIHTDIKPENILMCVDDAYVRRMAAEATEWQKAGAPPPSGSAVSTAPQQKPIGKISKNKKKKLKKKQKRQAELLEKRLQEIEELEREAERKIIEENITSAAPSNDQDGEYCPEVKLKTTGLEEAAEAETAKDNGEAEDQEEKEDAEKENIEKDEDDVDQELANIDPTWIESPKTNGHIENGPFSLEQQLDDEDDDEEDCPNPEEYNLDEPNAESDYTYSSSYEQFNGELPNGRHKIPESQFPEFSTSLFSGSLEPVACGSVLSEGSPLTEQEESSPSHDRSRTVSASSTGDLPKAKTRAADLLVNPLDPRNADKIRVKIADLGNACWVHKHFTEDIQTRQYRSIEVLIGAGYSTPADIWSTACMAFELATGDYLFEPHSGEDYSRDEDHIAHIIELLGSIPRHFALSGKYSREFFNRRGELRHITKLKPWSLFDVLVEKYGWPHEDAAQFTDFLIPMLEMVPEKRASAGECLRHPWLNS
# Chain of Calcium/calmodulin-dependent protein kinase type II subunit alpha (Q9UQM7 whole entry): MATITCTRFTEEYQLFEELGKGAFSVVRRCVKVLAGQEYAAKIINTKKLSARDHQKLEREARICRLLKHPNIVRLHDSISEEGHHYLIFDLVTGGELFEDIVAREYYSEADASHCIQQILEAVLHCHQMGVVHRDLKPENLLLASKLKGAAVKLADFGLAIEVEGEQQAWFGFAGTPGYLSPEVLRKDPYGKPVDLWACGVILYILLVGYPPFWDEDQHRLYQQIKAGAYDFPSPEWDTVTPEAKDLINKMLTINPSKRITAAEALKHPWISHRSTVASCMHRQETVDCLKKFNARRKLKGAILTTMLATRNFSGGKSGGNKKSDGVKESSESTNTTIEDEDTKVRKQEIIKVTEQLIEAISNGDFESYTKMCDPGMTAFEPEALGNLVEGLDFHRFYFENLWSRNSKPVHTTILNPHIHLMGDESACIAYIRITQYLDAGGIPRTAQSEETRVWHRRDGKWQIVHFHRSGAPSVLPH
# Chain of Tyrosine-protein kinase Fgr (Homo sapiens) (P09769 2-529 limits assumed): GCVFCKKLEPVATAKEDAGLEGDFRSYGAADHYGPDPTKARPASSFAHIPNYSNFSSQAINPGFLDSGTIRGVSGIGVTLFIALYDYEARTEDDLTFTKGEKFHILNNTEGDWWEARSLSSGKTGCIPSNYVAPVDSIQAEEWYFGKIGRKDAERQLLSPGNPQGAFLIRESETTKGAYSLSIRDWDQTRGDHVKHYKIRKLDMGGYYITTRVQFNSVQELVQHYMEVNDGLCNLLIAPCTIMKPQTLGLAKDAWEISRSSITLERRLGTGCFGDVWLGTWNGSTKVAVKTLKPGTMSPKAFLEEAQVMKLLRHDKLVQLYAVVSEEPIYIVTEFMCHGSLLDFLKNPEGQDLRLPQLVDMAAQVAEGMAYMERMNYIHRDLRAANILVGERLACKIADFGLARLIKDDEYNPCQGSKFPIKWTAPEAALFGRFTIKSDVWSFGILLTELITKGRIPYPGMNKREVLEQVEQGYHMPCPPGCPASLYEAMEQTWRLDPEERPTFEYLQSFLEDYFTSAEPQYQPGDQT
smiles,measurement,setting,value
COc1cc(N(C)c2ccnc3ccc(C(F)(F)F)cc23)cc(OC)c1OC,% binding,[1],94%
CC[C@@H]1[C@H](F)C(=O)N[C@@H]1COc1nccc2cc(C(N)=O)c(OC)cc12 [ZIMLOVISERTIB],% of inhibition,[2],2.66%
CN(C)C/C=C/C(=O)Nc1ccc(C(=O)N2CCCC(Nc3ncc(Cl)c(-c4c[nH]c5ccccc45)n3)C2)cc1 (stereo not given),% of control,[3],92%
O[C@H]1CC[C@H](Nc2ncc3nc(Nc4c(F)cc(F)cc4F)n([C@H]4CCOC4)c3n2)CC1,% of control,[4],95%
Cc1ccc(-c2ccc3c(ccc4sc5c(c43)NC[C@@H](C)NC5=O)n2)cn1,% of inhibition,[5],-11%
